# Experimental data from PubChem BioAssay (NCI).
# Several values for one entry are separate records, joined by “and”; a condition that tells them apart may be missing. Identical values can stand only once.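 Interpolation was linear, between the two tested concentrations surrounding the appropriate level; five concentrations were tested over 48 hours in 96-well plates. At the GI50, growth is halved. TGI marks complete inhibition of growth.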
# Tests used:
# Assay in all cases: DTP human tumour cell line panel, 48 h
# OVCAR-4 ovarian = tested on: OVCAR-4 ovarian
# LOX IMVI melanoma = tested on: LOX IMVI melanoma
# DU-145 prostate = tested on: DU-145 prostate
# HT29 colon = tested on: HT29 colon
# 786-0 renal = tested on: 786-0 renal
# SK-MEL-28 melanoma = tested on: SK-MEL-28 melanoma
# HOP-92 NSCLC = tested on: HOP-92 NSCLC
# COLO 205 colon = tested on: COLO 205 colon
# SK-MEL-5 melanoma = tested on: SK-MEL-5 melanoma
# KM12 colon = tested on: KM12 colon
SMILES,GI50 (OVCAR-4 ovarian),TGI (OVCAR-4 ovarian),GI50 (LOX IMVI melanoma),TGI (LOX IMVI melanoma),GI50 (DU-145 prostate),TGI (DU-145 prostate),GI50 (HT29 colon),TGI (HT29 colon),GI50 (786-0 renal),TGI (786-0 renal),GI50 (SK-MEL-28 melanoma),TGI (SK-MEL-28 melanoma),GI50 (HOP-92 NSCLC),TGI (HOP-92 NSCLC),GI50 (COLO 205 colon),TGI (COLO 205 colon),GI50 (SK-MEL-5 melanoma),TGI (SK-MEL-5 melanoma),GI50 (KM12 colon),TGI (KM12 colon)
COc1cc2c(cc1C)NC(=O)/C2=C\c1c[nH]c2ccccc12,12.3 µM,40.5 µM,11.4 µM,29.3 µM,15.3 µM,41.1 µM,5.27 µM,55.9 µM,17.8 µM,49.2 µM,21.7 µM,69.5 µM,10.2 µM,29.9 µM,16.6 µM,> 100 µM,14.9 µM,30.5 µM,0.417 µM,21.1 µM
CCCN1CCC(c2ccc(Nc3nc(Nc4cc(F)ccc4C(N)=O)c4cc[nH]c4n3)c(OC)c2)CC1,4.1 µM,13.1 µM,0.365 µM,5.84 µM,1.02 µM,4.92 µM,0.0124 µM,1.06 µM,3.07 µM,7.52 µM,4.19 µM,8.1 µM,0.00586 µM,0.126 µM,0.0183 µM,1.78 µM,3.41 µM,6.63 µM,2.88 µM,6.12 µM
COC(=O)[C@]12CC[C@@H](C)[C@H](C)[C@@H]1C1=CC[C@@H]3[C@@]4(C)C(C=O)=C[C@@](C)(COC(=O)/C=C/c5ccccc5)[C@@H]4[C@H](O)C[C@@]3(C)[C@]1(C)CC2,3.16 µM,> 100 µM,1.77 µM,3.66 µM,4.96 µM,25.9 µM,3.1 µM,10.2 µM,5.01 µM,42.7 µM,2.7 µM,7.63 µM,2.19 µM,9.1 µM,2.3 µM,5.33 µM,2.2 µM,5.92 µM,3.58 µM,19.4 µM
O=[N+]([O-])c1ccc(Sc2ccncn2)c([N+](=O)[O-])c1,2.78 µM,11.3 µM,1.97 µM,5.21 µM,2.14 µM,9.17 µM,1.64 µM,3.81 µM,2.24 µM,4.89 µM,4.31 µM,9.44 µM,1.17 µM,2.66 µM,2.55 µM,6.5 µM,3.27 µM,11.7 µM,2.75 µM,9 µM
C=CCc1c(O)c(C(=O)/C=C/c2ccccc2)c(OC)c2ccoc12,2.89 µM,12.8 µM,1.56 µM,2.93 µM,4.92 µM,18.1 µM,3.01 µM,,4.12 µM,16.8 µM,2.49 µM,8.28 µM,1.33 µM,4.82 µM,5.96 µM,18.1 µM,2.66 µM,10.9 µM,4.06 µM,13.6 µM
COc1ccc(OC)c(/C=C/c2nc(SCc3ccccc3)n(-c3ccc(Cl)cc3)n2)c1,67 µM,> 100 µM,2.89 µM,> 100 µM,9.9 µM,> 100 µM,3.93 µM,21.5 µM,7.66 µM,> 100 µM,28.5 µM,> 100 µM,> 100 µM,> 100 µM,14.6 µM,> 100 µM,4.75 µM,21.9 µM,4.99 µM,> 100 µM
C/C(=N/N=C(N)N)c1ccc(NC(=O)Nc2ccc(/C(C)=N/N=C(N)N)cc2)cc1,17.1 µM,61.1 µM,21.5 µM,> 70.1 µM,11.2 µM,40.1 µM,27.3 µM,> 100 µM,10.7 µM,30.1 µM,15 µM,39.9 µM,14.2 µM,33.8 µM,43.3 µM,> 100 µM,10.6 µM,37.9 µM,9.78 µM,> 77.7 µM
Cc1ccc(OCC2OC(n3cnc4c(Br)nc(Br)nc43)CC2Oc2ccc(C)cc2)cc1 (stereo not drawn),1.56 µM,4.84 µM and 7.55 µM,1.42 µM,2.47 µM and 3.67 µM,13.1 µM,23.8 µM and 5.88 µM,2.32 µM,8 µM and 7.2 µM,1.57 µM,3.48 µM and 9.92 µM,,10.1 µM,1.16 µM,2.55 µM and 5.36 µM,11.4 µM,25.3 µM and 13.1 µM,13.4 µM,23.8 µM and 23.7 µM,2.46 µM,8.76 µM and 9.56 µM
CN(C)CCNC(=O)NC[C@H]1CC[C@@H]2[C@H](O1)c1cc(C(F)(F)F)ccc1N[C@H]2c1ccccc1,3.03 µM,22.2 µM,2.53 µM,27.3 µM,0.253 µM,0.792 µM,0.303 µM,11.2 µM,5.42 µM,36.3 µM,1.63 µM,21.5 µM,1.25 µM,29 µM,0.0476 µM,0.236 µM,0.0999 µM,15.8 µM,0.296 µM,14.6 µM
COc1cccc2c1C(=O)c1c(O)c3c(c(O)c1C2=O)CC(O)(C(=O)CO)CC3OC1CC(N)C(O)C(C)O1 (stereo not drawn),46.6 mg/L and > 150 mg/L,75 mg/L and > 150 mg/L,3.89 mg/L and 19.5 mg/L,75 mg/L and > 150 mg/L,15.9 mg/L and 71 mg/L,75 mg/L and > 150 mg/L,15.7 mg/L and 49.5 mg/L,75 mg/L and > 150 mg/L,6.54 mg/L and 10.4 mg/L,75 mg/L and > 150 mg/L,33.8 mg/L and 44.8 mg/L,75 mg/L and > 150 mg/L,23.9 mg/L and 7.86 mg/L,75 mg/L and 127 mg/L,9.99 mg/L and 25.6 mg/L,75 mg/L and > 150 mg/L,4.76 mg/L and 15.7 mg/L,23.4 mg/L and 44.8 mg/L,16.9 mg/L and 54.4 mg/L,75 mg/L and > 150 mg/L
CN(C)c1ccc(N=C2C=CC(=O)c3ccccc32)cc1,2.02 µM,10.4 µM,1.78 µM,4.13 µM,1.74 µM,3.13 µM,3.62 µM,12.2 µM,15.2 µM,32.5 µM,2.38 µM,5.73 µM,5.06 µM,18.7 µM,2.06 µM,4.15 µM,1.34 µM,2.72 µM,2.69 µM,10.2 µM
O=C1C2C3C=CC(C2C(=O)N1CN1CCSCC1)C1C2C(=O)N(CN4CCSCC4)C(=O)C2C31 (stereo not drawn),,> 100 µM,,> 80.5 µM,78.4 µM,,,> 100 µM,,> 79.2 µM,,> 100 µM,,> 100 µM,,97.8 µM,,> 100 µM,,> 100 µM
